Measured values reported in PubChem BioAssay AID256 (DTP/NCI, 2004).
“And” between values parts separate entries of the source, which are not always exact repeats. Identical values can stand only once. Toxic doses and inconclusive results are not listed.

Test system: CD2F1 mice, L1210 leukemia ip, survival T/C
Assay: NCI In Vivo Anticancer Drug Screen. Data for tumor model L1210 Leukemia (intraperitoneal) in CD2F1 (CDF1) mice
Details: higher = longer survival
In short: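 In this screen, transplantable tumors were grown in mice given either the compound or its vehicle. Results were expressed as the treated measurement relative to the control measurement.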

[1] = endpoint: mean survival time, dose: 100.0 mg/kg/injection, schedule: Q04DX003 (ip), vehicle: saline with Tween-80
[2] = endpoint: mean survival time, dose: 200.0 mg/kg/injection, schedule: Q04DX003 (ip), vehicle: saline with Tween-80
[3] = endpoint: mean survival time, dose: 400.0 mg/kg/injection, schedule: Q04DX003 (ip), vehicle: saline with Tween-80
[4] = endpoint: mean survival time, dose: 100.0 mg/kg/injection, schedule: Q01DX009 (ip), vehicle: saline with Tween-80
[5] = endpoint: mean survival time, dose: 200.0 mg/kg/injection, schedule: Q01DX009 (ip), vehicle: saline with Tween-80
[6] = endpoint: mean survival time, dose: 400.0 mg/kg/injection, schedule: Q01DX009 (ip), vehicle: saline with Tween-80

In the case of `C[n+]1c(-c2cccc(-c3ccccc3)c2)c2cc(N)ccc2c2ccccc21`, the T/C (endpoint: mean survival time, dose: 0.78 mg/kg/injection, schedule: Q01DX009 (ip), vehicle: other) is reported as 92 % of control, the T/C (endpoint: mean survival time, dose: 1.56 mg/kg/injection, schedule: Q01DX009 (ip), vehicle: other) is reported as 92 % of control and the T/C (endpoint: mean survival time, dose: 3.13 mg/kg/injection, schedule: Q01DX009 (ip), vehicle: other) is reported as 104 % of control. For the same compound, the T/C (endpoint: mean survival time, dose: 6.25 mg/kg/injection, schedule: Q01DX009 (ip), vehicle: other) was 108 % of control and 110 % of control.
With `CCC(=O)C(c1ccccc1)(c1ccccc1)c1ccccc1` the T/C (endpoint: mean survival time, dose: 25.0 mg/kg/injection, schedule: Q04DX002 (ip), vehicle: other) was 98 % of control, the T/C (endpoint: mean survival time, dose: 50.0 mg/kg/injection, schedule: Q04DX002 (ip), vehicle: other) was 95 % of control and the T/C (endpoint: mean survival time, dose: 100.0 mg/kg/injection, schedule: Q04DX002 (ip), vehicle: other) was 95 % of control.
For `CCCCCCCCCC(=O)NCC[N+](C)(C)C`, the T/C (endpoint: mean survival time, dose: 5.0 mg/kg/injection, schedule: Q01DX001 (ip), vehicle: saline) was 107 % of control, the T/C (endpoint: mean survival time, dose: 10.0 mg/kg/injection, schedule: Q01DX001 (ip), vehicle: saline) was 102 % of control and the T/C (endpoint: mean survival time, dose: 20.0 mg/kg/injection, schedule: Q01DX001 (ip), vehicle: saline) was 103 % of control. For the same compound, the T/C (endpoint: mean survival time, dose: 40.0 mg/kg/injection, schedule: Q01DX001 (ip), vehicle: saline) was 103 % of control and the T/C (endpoint: mean survival time, dose: 80.0 mg/kg/injection, schedule: Q01DX001 (ip), vehicle: saline) was 103 % of control.
With `c1ccc(-c2cscc2-c2ccccc2)cc1` the T/C (endpoint: mean survival time, dose: 100.0 mg/kg/injection, schedule: Q01DX001 (ip), vehicle: saline with Tween-80) was 96 % of control, the T/C (endpoint: mean survival time, dose: 200.0 mg/kg/injection, schedule: Q01DX001 (ip), vehicle: saline with Tween-80) was 96 % of control and the T/C (endpoint: mean survival time, dose: 400.0 mg/kg/injection, schedule: Q01DX001 (ip), vehicle: saline with Tween-80) was 96 % of control.
`BrC1CCCCCC12OCCO2` (configuration not stated) was tested, and the T/C [1] was 86 % of control, the T/C [2] was 94 % of control and the T/C [3] was 89 % of control.
In the case of `Nc1n[nH]c2ccccc12`, the T/C (endpoint: median survival time, dose: 25.0 mg/kg/injection, schedule: Q01DX009 (ip), vehicle: acid diluted with saline) is reported as 101 % of control and 103 % of control and 105 % of control, the T/C (endpoint: median survival time, dose: 50.0 mg/kg/injection, schedule: Q01DX009 (ip), vehicle: acid diluted with saline) is reported as 101 % of control and 108 % of control and 111 % of control and the T/C (endpoint: median survival time, dose: 100.0 mg/kg/injection, schedule: Q01DX009 (ip), vehicle: acid diluted with saline) is reported as 107 % of control. The T/C (endpoint: median survival time, dose: 200.0 mg/kg/injection, schedule: Q01DX009 (ip), vehicle: acid diluted with saline) was 154 % of control and 158 % of control and the T/C (endpoint: median survival time, dose: 400.0 mg/kg/injection, schedule: Q01DX009 (ip), vehicle: acid diluted with saline) was 158 % of control.
With `N#Cc1cn(C2OC(CO)C(O)C2O)n2ccnc12` (configuration not stated) the T/C (endpoint: median survival time, dose: 12.5 mg/kg/injection, schedule: Q01DX005 (ip), vehicle: water) was 118 % of control, the T/C (endpoint: median survival time, dose: 25.0 mg/kg/injection, schedule: Q01DX005 (ip), vehicle: water) was 102 % of control and the T/C (endpoint: median survival time, dose: 50.0 mg/kg/injection, schedule: Q01DX005 (ip), vehicle: water) was 116 % of control. The T/C (endpoint: median survival time, dose: 100.0 mg/kg/injection, schedule: Q01DX005 (ip), vehicle: water) was 109 % of control and the T/C (endpoint: median survival time, dose: 200.0 mg/kg/injection, schedule: Q01DX005 (ip), vehicle: water) was 115 % of control.
`CCCN(CCC)N=Nc1c(C(=O)OC)n[nH]c1C` was tested, and the T/C (endpoint: mean survival time, dose: 25.0 mg/kg/injection, schedule: Q01DX009 (ip), vehicle: saline with Tween-80) was 97 % of control, the T/C (endpoint: mean survival time, dose: 50.0 mg/kg/injection, schedule: Q01DX009 (ip), vehicle: saline with Tween-80) was 102 % of control and the T/C [4] was 104 % of control and 108 % of control. The T/C (endpoint: mean survival time, dose: 117.0 mg/kg/injection, schedule: Q01DX009 (ip), vehicle: saline with Tween-80) was 122 % of control and the T/C (endpoint: mean survival time, dose: 178.0 mg/kg/injection, schedule: Q01DX009 (ip), vehicle: saline with Tween-80) was 97 % of control.
For `OC1CCC(O)C2C3CCC(C3)C12` (configuration not stated), the T/C [4] was 98 % of control, the T/C [5] was 100 % of control and the T/C [6] was 102 % of control.
`C=C(C(=O)O)C(N)C(=O)O` (configuration not stated) was tested, and the T/C (endpoint: median survival time, dose: 25.0 mg/kg/injection, schedule: Q01DX009 (ip), vehicle: suspension in saline) was 96 % of control, the T/C (endpoint: median survival time, dose: 50.0 mg/kg/injection, schedule: Q01DX009 (ip), vehicle: suspension in saline) was 108 % of control and the T/C (endpoint: median survival time, dose: 100.0 mg/kg/injection, schedule: Q01DX009 (ip), vehicle: suspension in saline) was 103 % of control. For the same compound, the T/C (endpoint: median survival time, dose: 200.0 mg/kg/injection, schedule: Q01DX009 (ip), vehicle: suspension in saline) was 94 % of control and the T/C (endpoint: median survival time, dose: 400.0 mg/kg/injection, schedule: Q01DX009 (ip), vehicle: suspension in saline) was 91 % of control.
With `COc1ccc(OC)c(NC(=O)N2CCCC(C)C2)c1` (configuration not stated) the T/C (endpoint: mean survival time, dose: 88.0 mg/kg/injection, schedule: Q01DX009 (ip), vehicle: other) was 95 % of control, the T/C (endpoint: mean survival time, dose: 100.0 mg/kg/injection, schedule: Q01DX009 (ip), vehicle: other) was 124 % of control and the T/C (endpoint: mean survival time, dose: 133.0 mg/kg/injection, schedule: Q01DX009 (ip), vehicle: other) was 95 % of control. For the same compound, the T/C (endpoint: mean survival time, dose: 300.0 mg/kg/injection, schedule: Q01DX009 (ip), vehicle: other) was 95 % of control.
For `COc1ccc(OC)c2nc(-c3ccccc3)c(-c3ccccc3)nc12`, the T/C [4] was 98 % of control, the T/C [5] was 97 % of control and the T/C [6] was 104 % of control.
With `O=C(N/N=C/c1ccc2c(c1)CCC2)c1ccc([N+](=O)[O-])cc1` the T/C [1] was 95 % of control, the T/C [2] was 89 % of control and the T/C [3] was 98 % of control.
`c1ccc(C[As+](c2ccccc2)(c2ccccc2)c2ccccc2)cc1` was tested, and the T/C (endpoint: mean survival time, dose: 25.0 mg/kg/injection, schedule: Q04DX002 (ip), vehicle: saline with Tween-80) was 96 % of control.
